# Read-outs that look alike come from different tables or passages of the source.
# Legend:
# [1] = system: platelets in human whole blood; test: whole blood platelet aggregation in vitro (collagen); format: cell-based; details: for inhibition of platelet aggregation: alone: cilostazol 0.3-3 μM, dipyridamole 1 or 3 μM, 0.1 or 0.3 μg/ml collagen; for effect on platelet aggregation in whole blood: alone: cilostazol 10 or 30 μM, dipyridamole 0.1, 0.3, 1 or 3 μM, 0.5 μg/ml collagen
# Method: The electrodes were then placed in the cuvette and the sample was allowed to incubate at 37° C. while the instrument was calibrated. […] Dipyridamole was diluted in ethanol (EtOH) to a stock concentration of 100 mM. […] The suspension was allowed to incubate for 3 minutes before collagen was added. […] […] Data are expressed as percent of the values detected in the absence of any inhibition.
# human washed platelets = test: collagen-induced aggregation of washed platelets; format: cell-based; details: for inhibitory effect on washed platelet aggregation: alone: dipyridamole 1, 3 or 10 μM, cilostazol 30 or 100 nM, adenosine 1 μM; for IC50: Homo sapiens, Platelet; for inhibition of washed platelet aggregation: single agent + 1 μM adenosine (dipyridamole 1, 3, 10 μM; cilostazol 30 or 100 nM)
# Method: Aggregation was quantified by the change in light transmission using an AG-10 Aggregation Analyzer (Kowa, Japan). Washed platelets were maintained at room temperature and the study was performed within 3 hours following blood collection. Cilostazol was dissolved in DMSO and adenosine was dissolved in water. […] Drug or vehicle (DMSO) was then added (0.4 μl) and incubated for another 3 minutes. […] The overall time of aggregation recorded was 15 minutes.
# [2] = system: adenosine uptake into washed human erythrocytes; test: [3H]adenosine uptake into washed erythrocytes; format: cell-based
# Method: Washed erythrocytes (wRBC) were prepared as follows.
# [3] = system: whole blood platelet aggregation; test: ex vivo whole blood platelet aggregation, clinical crossover study; format: in vivo, human; details: alone: cilostazol 100 mg, dipyridamole 200 mg
# Method: On study day 4, subjects received one 200 mg tablet of dipyridamole. […] The platelet aggregation was induced by the addition of collagen (final concentration of 0.3 μg/ml, Nycomed Arzneimittel, Munchen, Germany). The percentage aggregation was recorded at each time point. To compare the effect of drug treatments, the aggregation at 2-hour and 4-hour is normalized as a percentage to the values prior to dosing.
# [4] = blood concentration after single oral dose; format: in vivo, human; details: 2 and 4 hours after a single dose
# [5] = system: isolated rabbit Langendorff hearts; test: cardiac function of isolated rabbit Langendorff hearts
# Method: This study was conducted in accordance with the “Guide for the Care And Use of Laboratory Animals”, published by the National Research Council, 1996, Washington D.C., and approved by the Institutional Animal Care and Use Committee of Otsuka Maryland Research Institute, LLC. […] A tracheotomy was performed and the animals were intubated. […] The respiratory rate was adjusted to keep arterial blood PO2, PCO2 and pH in the physiological range. […] Hearts were exposed through a mid-line incision of the chest, and quickly excised by an incision at the base of the heart and put into ice-cold Krebs-Henseleit bicarbonate buffer. The heart was then attached to a Langendorff apparatus by the aortic root, and perfused with non-recirculating Krebs-Henseleit buffer at a constant pressure of 75 mmHg. The perfusate was bubbled with 95% O2 and 5% CO2 gas mixture, and the bubbling rate was adjusted to maintain physiological pH (7.35-7.45). Perfusate temperature was maintained at 38° C. by a circulating waterjacket surrounding the buffer reservoirs. The heart was also maintained at 38° C. via a water-jacketed housing in which it was suspended. The open top of the jacket was covered with a piece of parafilm to maintain the humidity and temperature. The pulmonary artery around the right side of the aortic root was cannulated for collecting coronary effluent and for coronary flow rate measurement with a graduated cylinder. […] The pressure transducer was connected to a Grass Chart Recorder (Model 7) to record left ventricular pressure and its first derivative (dp/dt), and heart rate. Hearts with left ventricular developing pressure less than 85 mmHg at the end of the 15-min equilibrium period were not included in the study. The cardiac function indexes measured were LVDP (left ventricular developed pressure), dp/dtmax (the maximal value of the first derivative of the LVDP), heart rate, and coronary flow. […] Measurements for cardiac function were taken at the end of each 5 min drug treatment. The effect of drug treatment is expressed as the percent change of values before and after each drug treatment: % Change from Baseline=[(Value after drug−Value before drug)/Value before drug]×100 Statistical Analysis
# [6] = blood concentration during intravenous infusion; format: in vivo, rabbit; details: cilostazol 0.225 mg/kg bolus + 0.0175 mg/kg/min i.v.; dipyridamole 20 μg/kg/min i.v.
# Method: Sixty minutes after the surgery, injection of vehicle or the drug combination was initiated. After 20 minutes, the gastrocnemius muscle of the left hindlimb was stimulated throughout the rest of the experiment. Twenty minutes after the stimulation (40 minute time point in FIG. 15), the left femoral artery was clamped for 20 minutes to induce ischemia and then released to allow reperfusion. The regional blood flow was determined by the injection at 0, 20, 40, 60, and 80 minutes of blue-green, yellow-green, orange, red and crimson fluorescent microspheres.
# adenosine uptake = details: cited from earlier work; for IC50: read-out: IC50 of adenosine uptake inhibition
# PDE3 = details: Liu et al., 2000; read-out: potency for inhibition of PDE3; cited from earlier work
# [7] = system: isolated rabbit Langendorff hearts; details: concentrations below 1 μM, previous studies; cited from earlier work
# [8] = system: adenosine A2A-expressing Chinese hamster ovary (CHO) cells; test: CRE-luciferase assay (intracellular cAMP) in CHO cells expressing human adenosine A2A receptor; format: cell-based; details: range 0.5 μM to 10 μM
# Method: The level of luciferase expression reflects the concentration of intracellular cAMP. […] Therefore, the activation of the receptors would be reflected by luciferase expression, where the expression level can be measured by the luciferase activity assay. Co-transfection of the luciferase reporter vector with the vectors containing adenosine A2A receptors was carried out by calcium phosphate precipitation into Chinese hamster ovary (CHO) cells. Stable transfectants were selected with 1.0 mg/ml G418 (Life Technologies) for 12 days. The cell clones over-expressing functional adenosine A2A receptors were determined by luciferase expression under the stimulation of adenosine.
# The next day, the cells were washed once with F12K medium supplemented with 0.5% FCS and then incubated with 100 μl of the medium only (basal) or medium plus test agents for 4 hours at 37° C. After equilibrating to room temperature, 100 μl of detection substrate (Bright-Glo™ luciferase assay system, Promega, Madison, Wis.) were added to each well. The luciferase activity was measured after 5 minutes using a Mediators PhL luminescence plate reader (ImmTech, New Windsor, Md.). The value of luminescence (arbitrary unit) detected during half a second was taken as luciferase activity.
# whole blood = test: adenosine concentration in plasma of collagen-stimulated whole blood (HPLC); format: cell-based, human; details: dipyridamole 1 μM, 5 minutes after 2 μg/ml collagen, n=3
# Method: Blood was drawn and mixed with recombinant human huridin (100 U/ml). The same procedure for platelet aggregation was used to stimulate these platelets with collagen (2 μg/ml). After a 5-minute incubation, 500 μl of WB were mixed quickly with 500 μl of ice-cold saline. The cells were spun at 20,000×g for 4 minutes at 4° C. Supernatant (600 μl) was first mixed with 300 μl PCA (2.5 N) and then neutralized with 300 μl of KHCO3 (2.5 M). Finally, the mixture was centrifuged at 20,000×g for 15 minutes at 4° C. The adenosine concentration in the supernatants was measured using reverse-phase high performance liquid chromatography (HPLC, Waters Alliance 2690) with a Hypersil 3μ C18 column (150 mm×4.6 mm) and a gradient from 5 to 20% methanol in 20 mM KH2PO4. Adenosine was detected using a diode array detector (Water 996) with an absorbance change at 258 nm and quantified by comparison of retention times and peak height with those of a known external standard. Quantification was performed using Waters Millennium 32 Client/Server software.
# [9] = 2 and 4 hours after a single dose of 200 mg, previous pharmacokinetic data; cited from earlier work
# [10] = system: adenosine uptake into CHO cells over-expressing functional human A2A receptors; test: [3H]adenosine uptake into CHO cells over-expressing human A2A receptors; format: cell-based; details: compared with platelets and erythrocytes, data not shown
# [11] = dipyridamole 0.3, 1 or 3 μM with cilostazol
compound,measurement,setting,value
Nc1nc(NCCc2ccc(O)cc2)nc2nc(-c3ccco3)nn12 [ZM241385],effect on the synergistic effect of dipyridamole and cilostazol on whole blood aggregation,"[1]; ZM241385 0.1 μM, n=8",reverted back to the basal level of cilostazol alone
Nc1ncnc2c1ncn2[C@@H]1O[C@H](CO)[C@@H](O)[C@H]1O [adenosine],effect on collagen-induced platelet aggregation,"human washed platelets; 1 μM, by itself",little effect
same,inhibitory effect on washed platelet aggregation,human washed platelets,no effect
"O=C1CCc2cc(OCCCCc3nnnn3C3CCCCC3)ccc2N1 [cilostazol, 6-[4-(1-cyclohexyl-1H-tetrazol-5yl)butoxy]-3,4-dihydro-2(1H)-quinolinone]",effect on collagen-induced platelet aggregation,"human washed platelets; 1 μM, by itself",little effect
same,IC50,"human washed platelets; read-out: IC50 of Cilostazol on Platelet Aggregation, +Adenosine (1 μM)",380 ± 50 nM
same,IC50,"human washed platelets; read-out: IC50 of Cilostazol on Platelet Aggregation, +Adenosine + Dipyridamole (1 μM)",170 ± 40 nM
same,IC50,"human washed platelets; read-out: IC50 of Cilostazol on Platelet Aggregation, +Adenosine + Dipyridamole (3 μM)",110 nM
same,IC50,"human washed platelets; read-out: IC50 of Cilostazol on Platelet Aggregation, +Adenosine + Dipyridamole (10 μM)",10 ± 10 nM
same,IC50,"human washed platelets; read-out: IC50 of Cilostazol on Platelet Aggregation, cilostazol alone, washed platelets, collagen",2660 ± 410 nM
same,inhibitory effect on washed platelet aggregation,human washed platelets,no significant inhibitory effect
same,effect on collagen-induced platelet aggregation,human washed platelets; cilostazol 1 μM combined with adenosine 1 μM,completely inhibited
same,inhibition of washed platelet aggregation,human washed platelets,significant differences from controls
same,IC50,"[2]; Homo sapiens, Erythrocyte, washed erythrocytes, n=3, read-out: IC50 of adenosine uptake inhibition",~7000 nM
same,inhibition of platelet aggregation,[1],did not cause any significant inhibition
same,effect on platelet aggregation in whole blood,[1],did not have a significant effect
same,inhibition of ex vivo platelet aggregation,[3],neither cilostazol nor dipyridamole alone inhibited
same,blood concentration,[4],about 2 μM
same,coronary flow,[5]; cilostazol 3 or 10 μM,significantly increased
same,blood concentration,[6],about 1 μM
same,IC50,"adenosine uptake; various cells (rabbit cardiac myocytes, human vascular smooth muscle, endothelial cells), Liu et al., 2000",5000 to 10000 nM
same,IC50,PDE3,320 nM
same,effects on cardiac function,[7],minimal effects
OCCN(CCO)c1nc(N2CCCCC2)c2nc(N(CCO)CCO)nc(N3CCCCC3)c2n1 [dipyridamole],inhibitory effect on washed platelet aggregation,human washed platelets,no significant inhibitory effect
same,inhibition of washed platelet aggregation,human washed platelets,enhanced the effect of dipyridamole significantly
same,dipyridamole concentration of peak enhancement of cilostazol effect on luciferase activity,[8],about 5 μM
same,inhibition of platelet aggregation,[1],did not cause any significant inhibition
same,effect on platelet aggregation in whole blood,[1],did not have a significant effect
same,platelet aggregation,"[1]; dipyridamole 1 μM, 2 μg/ml collagen",not affected
same,adenosine levels in whole blood plasma,whole blood,5.916 ± 0.641 µM
same,inhibition of ex vivo platelet aggregation,[3],neither cilostazol nor dipyridamole alone inhibited
same,effect on cardiac function,"[5]; dipyridamole 0.3, 1 or 3 μM alone",no significant effect
same,cilostazol-induced increase of cardiac contractility,[5]; [11],significantly reduced
same,cilostazol-induced increase of heart rate,[5]; [11],significantly reduced
same,cilostazol-induced increase in coronary flow,[5]; dipyridamole 1 and 3 μM with cilostazol 10 μM,augmented
same,blood concentration,[6],about 1 μM
same,IC50,adenosine uptake,10 nM
same,blood concentration,[9],about 2 μM
Cc1[nH]c(=O)c(C#N)cc1-c1ccncc1 [milrinone],effect on adenosine uptake,[2]; erythrocytes,virtually no effect
same,inhibition of [3H]adenosine uptake,[10],no effect
same,inhibitory effect on adenosine uptake,"adenosine uptake; at concentrations as high as 100 μM, Liu et al., 2000",no significant inhibitory effect

# From patent US20050165030A1, “Pharmaceutical compositions comprising a multifunctional phosphodiesterase inhibitor and an adenosine uptake inhibitor” (priority 2001, published 2005)
